Source: patent publication US20250189516A1, “PHOSPHORYLATION OF P53 AS A PROGNOSTIC OR DIAGNOSTIC MARKER FOR THE TREATMENT OF SENESCENT CELLS IN A MAMMAL” (CLEARA BIOTECH B.V., priority 2022, published 2025)
Square brackets hold non-standard residues; d marks the D form. Ends that are not written are not given here.

How the values were obtained:
[1] = system: CRC29 colorectal cancer organoid line, liver metastases; assay: Colorectal cancer organoid CRC29 caecum implant model, liver metastasis (FIG. 9); format: in vivo, immunodeficient mice; settings: 50 mg/kg 5-FU, 3 doses of 2.5 mg/kg CL04183, versus PBS
Method: The colorectal cancer organoid line CRC29 was implanted in the caecum of immunodeficient mice. Two weeks after transplantation the animals were treated with either ‘5-Fluorouracil (5-FU) or PBS. […] A) The livers were stained for KU80 or human nucleoli to detect human cancer cells in the mouse organs, together with p-p53 (T55) or PML. B) The number of liver metastases per stained section was counted by eye.
Mouse experiments were performed after approval from the Dutch animal ethics committee (WP number 9124-1-03). NOD.Cg-Prkdcscid Il2rgtm1Wjl/SzJ/J mice were purchased from Charles River and maintained in a pathogen-free environment. The animals were anaesthetized using 75 mg/kg ketamine and 0.5 mg/kg dexmedetomidine injected i.p., while 5 mg/kg carprofen was injected s.c. as analgesia. Subsequently, CRC29 organoids (250000 cells) containing a firefly luciferase construct were transplanted into the caecum in a 10 μl collagen droplet. Two weeks after tumor cell implatation the animals were treated with either 50 mg/kg ‘5-Fluorouracil (5-FU) or PBS. […] Four weeks after transplantation, the mice were sacrificed, and tissues were collected for further processing.

[2] = system: human breast cancer cell lines; assay: MTS viability assay in human breast cancer cell lines versus number of PML bodies (FIG. 7); format: cell-based
Description: Spearman's rank correlation coefficient (0.93) given; B) Correlation of open P53 (Pab240 clone) and P53 pSer392 (EP155Y clone) staining in a panel of eight human breast cancer lines including luminal, Her2 positive and triple-negative. Spearman's rank correlation coefficient (0.88) given; and C) Association between PML body count/nuclear pixel (to correct for variation in nucleus size between lines) and nuclear P53 pSer392 staining intensity in eight human breast cancer lines plotted against the effective dose inducing cell death in 50% of the population (ED50, as measured by MTS assay) after treatment with CL04177 for these cell lines. Sensitive cell lines are highlighted by the box.
To study the selectivity of different therapies for cancer cells, colorimetric-based cytotoxicity assays were performed two days following treatments. […] The resulting colorimetric reactions were read at 490 nm on a Microplate Absorbance Reader. Relative survival was determined by normalization of the results to Mock (=100% alive). […]
Six days after treatment, cells were incubated with 10 μl CellTiter 96® AQueous One Solution Cell Proliferation Assay (Promega) for 1 hour at 37° C. to perform an MTS assay. Subsequently, absorbance was measured at 490 nm using a Spectramax M5e.

[3] = system: cancer cell lines with wildtype or "open" p53 conformation; assay: Viability curves / ED50 in cell lines from several types of cancer by p53 conformation (FIG. 14); format: cell-based; settings: cancers with genetic mutations in p53, versus wildtype p53 conformation
Description: FIG. 14 The CL04177 peptide targets cells from multiple types of cancer, with a higher selectivity towards cell lines that are genetically predisposed towards expressing p53 in its “open” conformation through TP53 mutations. Viability curves exemplifying the response to the peptide for two cell lines, A) A2780 that has a wildtype p53 conformation and B) H23, which contains p53 with an “open” conformation based on genetic mutations in p53.
(§1) To study the selectivity of different therapies for cancer cells, colorimetric-based cytotoxicity assays were performed two days following treatments. Cells from several different cancer types (breast, ovarian, pancreas, gastric lung and liver cancer) were cultured in 96-wells plates with 4000 cells per well. These were treated with a serial dilution of compounds in triplicates and mock-treatments ([…], since peptides were dissolved therein). The AQeousOne Solution Cell Proliferation Assay Kit was used to assess cell viability, according to the manufacturer's instructions. In short, the old medium was removed and 100 μl of fresh medium and 10 μl of CellTiter AQueousOne solution were added to each well. The plates were incubated for 1 hour at 37° C. The resulting colorimetric reactions were read at 490 nm on a Microplate Absorbance Reader. Relative survival was determined by normalization of the results to Mock (=100% alive). […]

[4] = system: MDA-MB-231 firefly luciferase-containing cells, metastases; assay: Anti-metastatic activity in vivo in an orthotopic TNBC model (FIG. 8); parameters: species or system NSG mice
Method: PBS-treated mice developed metastatic growth visible by bioluminescence.
Approval for this study was obtained by the local University Animal Experimental Committee at the University Medical Center Utrecht (IVD-UMC; WP numbers 9124-1-02 and −05). MDA-MB-231 firefly luciferase-containing cells were transplanted orthotopically into the exposed inguinal mammary fat pad as single cells at a density of 1 millionn cells in 50 ul of a medium into NSG mice (NOD.Cg-PrkdcIL2rgmWij/Szj) (stock 005557). Carprofen was injected s.c. as analgesia following the surgery. Animals were purchased from Charles River and maintained in a pathogen-free environment.
Tumor growth dynamics were quantified in mice with established tumors (>50 mm3). […] After 2 weeks of recovery, mice were sacrificed. For in vivo dosing, the peptides were dissolved in PBS. We used 11 mice per group that were randomly assigned to the different treatment groups before the start of the experiment.
To visualize tumor burden in a live mouse, mice were injected with luciferin substrate i.p. at 150 mg/kg, and imaged under isoflurane anesthesia 15 min later using a bioluminescence imager. The M3Vision software was used to analyze the bioluminescence signal by taking a region of interest (ROI) around the primary tumor to evaluate the BL signal from the tumor or around the upper abdomen and chest of the mouse to evaluate the signal from metastases. The signal was measured in photons/s/cm2.

[5] = system: triple-negative breast cancer cell line MDAMB231; assay: Immunofluorescence of MDAMB231 cells surviving the LD50 dose (FIG. 13); format: cell-based, human; settings: staining two days later, survivors have low PML and p53 (S392)
Method: A) The triple-negative breast cancer cell line MDAMB231 was treated with the LD50 dose, determined in previous assays. Two days later, an immunofluorescence staining was performed for the indicated proteins. B) Therapy-survivors are made up primarily of cells with low levels of these proteins.
as §1

[6] = target: p53-TAD2 phosphorylated at T55 or S46 (Homo sapiens, UniProt P04637); assay: Fluorescence anisotropy binding assay with FITC-labelled p53 peptides (FIG. 3); settings: versus non-phosphorylated p53-TAD2
Chain of p53-TAD2 phosphorylated at T55 or S46 (P04637 37-57 limits assumed): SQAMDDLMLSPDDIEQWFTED
Method: Data was acquired on a ClarioStar Plus plate reader. Endpoint measurement with 200 flashes per well were performed. An excitation filter with 482 nm wavelength and emission filter with 530 nm were used and gain adjustment as well as focal height adjustment were performed for each measurement. Fluorescence intensity, parallel fluorescence polarization and perpendicular fluorescence polarization were recorded. Data analysis was performed using MARS Version 3.4 (BMG), Microsoft Excel and GraphPad Prism Version 8.
For measurements, 116 μl of a solution of the specific Cleara peptides (ranging from 1 to 100 μM) were prepared. Subsequently 4 μl of FITC-labelled p53 peptides (stock concentration 15 μM, resulting in a final concentration of 500 nM) were added. 35 μl were then transferred in each well of the 384-well plate. Measurements were performed in triplicates. If necessary, this setup was extended with lower concentrations in order to cover strong interactions.
The anisotropy (r) is defined as the ratio of the polarized component to the total intensity (IT):
where the excitation is polarized along the z-axis, emission from the fluorophore is symmetric around the z-axis, so Ix=Iy and […], resulting in:
The obtained anisotropy values for each concentration of CL peptide can be used to determine the binding affinity, by applying following fitting function: […]

[7] = daily s.c. for one week, 2.5 mg/kg CL04183, 10 mg/kg CL04177, versus PBS

O=c1[nH]cc(F)c(=O)[nH]1 [5-FU, 5-Fluorouracil]
effect on liver metastases [1]: specifically counteract liver metastases

RKKASSKIEAEILDAFSQNWRRKRPPRRRQRRKKRG ([dR][dK][dK][dA][dS][dS][dK][dI][dE][dA][dE][dI][dL][dD][dA][dF][dS][dQ][dN][dW][dR][dR][dK][dR][dP][dP][dR][dR][dR][dQ][dR][dR][dK][dK][dR]G; listed as Homo sapiens) [CL04177, retro-inverso peptide derived from human FOXO4]
sensitivity of cell lines to the peptide ([2]; breast cancer lines with few PML bodies): less sensitive
sensitivity of cell lines to the peptide ([2]; triple-negative lines with high levels of PML bodies): highly sensitive
sensitivity (ED50s) of cancers predisposed towards "open" p53 [3]: more sensitive
effect on liver metastases ([4]; FIG. 8): specifically counteract liver metastases
incidence of liver metastasis (bioluminescence of tumor cells in the extracted livers) [4, 7]: decreased the incidence of liver metastasis
incidence of visible metastasis (bioluminescence) [4, 7]: decreased the incidence of visible metastasis
cell population targeted [5]: targets cells with increased PML bodies and phosphorylated p53

B1: FOXO4: fragment of human FOXO4 (Uniprot ID P98177) from amino acid 86 to 207, recombinant forkhead domain (protein)
chain: GAVTGPRKGGSRRNAWGNQSYAELISQAIESAPEKRLTLAQIYEWMVRTVPYFKDKGDSNSSAGWKNSIRHNLSLHSKFIKVHNEATGKSSWWMLNPEGGKSGKAPRRRAASMDSSSKLLRG
affinity to p53-TAD2 when phosphorylated at T55 or S46 [6]: substantially higher affinity
